Measured values taken from patent US20190343908A1, “Therapeutic Combination for the Treatment of Cancer” (Nerium Biotechnology Inc., priority 2011, published 2019).

Assays:
[1] = test system: A375 melanoma cancer cell line; assay: Methyl-Tetrazolium viability assay, A375; format: cell-based, human; conditions: for ABSORBANCE: 0.1 μg/mL cisplatin; for Average absorbance, MTT 24 h / Average absorbance, MTT 48 h / Average absorbance, MTT 72 h: A375 Run 1
Text: Three different viability assays were chosen to complement each other and yielded results dependent on concentration and cell line: the Methyl Tetrazolium dye assay, the Sulforhodamine B fluorescent dye assay, and the Crystal Violet dye assay.
The Methyl-Tetrazolium dye assay measures the activity of enzymes in mitochondria. The dye precursor is taken up by cells, where it undergoes reduction to the purple formazan. It measures only the mitochondrial activity and, thus, it is not always a reliable indication of whether the cells themselves are alive or dead, since even a recently dead cell has […] enzyme activity in mitochondria. Intracellular glucose concentration, pH, and time before assay all affect the measurements.
(§1) The Methyl Tetrazolium, Sulforhodamine B, and Crystal Violet assays were used to assess cell viabilities. The incubation times were 24 hours, 48 hours, and 72 hours. The Nerium oleander extract Anvirzel™ (a hot water extract of oleander obtained from Salud Integral, Honduras) was tested in concentrations ranging from 0.01 ng/mL to 10 ng/mL.
(§2) Cells were detached by trypsinization (Trypsin-0.25% EDTA, Invitrogen, 25200-072) during the logarithmic phase of culture growth and plated in 96-well plates (18.000 cells/well) (Corning, Costar 359) in a final volume of 200 μl of medium per well. […] The absorbance was measured after 24 hours, 48 hours, and 72 hours of incubation.
For the Methyl-Tetrazolium assay, the dye (Sigma, M2128; 5 mg/mL, diluted in phosphate-buffered saline) was added to each well and plates were incubated for 3 hours at 37° C. After the end of the incubation period, the medium was discarded and the cells were rinsed with phosphate-buffered saline. Finally, the formazan crystals were dissolved in dimethylsulphoxide (Sigma, D4540).
(§3) The optical density of each plate was measured on a μQuant spectrophotometer and the data were analyzed with Gen5 software (μQuant Biomolecular Spectrophotometer MQX200 and Gen5™ Microplate Data Collection & Analysis software, BioTek® Instruments. Inc, April 2008). Absorbance was measured at 570 nm for all assays and a second wavelength was measured in order to subtract noise. For the Methyl-Tetrazolium assay this second wavelength was 630 nm and for the Sulforhodamine B and Crystal Violet assays it was 690 nm.

[2] = test system: HCT-15 (colorectal cancer); assay: Crystal Violet viability assay, HCT-15; format: cell-based, human; design: key to CVE Average: absorbance at 570 nm (second wavelength subtracted); conditions: for CVE Average 24 h / CVE Average 48 h / CVE Average 72 h: HCT-15, Run 1
Text: The Sulforhodamine B and Crystal Violet assays provide information about protein and were used to complement the Methyl-Tetrazolium dye assay. […] It is used for the quantification of cellular proteins of cultured cells. The assay using Crystal Violet, a dye that binds electrostatically to proteins and stains DNA, provides a reliable, simple assay for measuring viability of cells.
as §1, §2
For the Crystal Violet assay, the medium was removed from the 96-well plates, the plates rinsed with PBS (Sigma, P3813) and then the cells were […] by the addition of 10% formalin (MERCK, 1.04003.2500) for 20 minutes at RT. Formalin was removed and 0.25% aqueous crystal violet (Sigma, HT901), dissolved in water, was added for 10 minutes at RT. Unbound Crystal Violet was rinsed by washing with water and finally 33% acetic acid was added to dissolve the dye.
as §3

## N.N.[Cl][Pt][Cl] [cisplatin]
[1]; A375, 48 h
  ABSORBANCE: 0.332
[1]; A375, 72 h
  ABSORBANCE: 0.479
[1]; 0.1 μg/ml CDDP
  Average absorbance, MTT 24 h: 0.34
  Average absorbance, MTT 48 h: 0.332
  Average absorbance, MTT 72 h: 0.479
[1]; 1 μg/ml CDDP
  Average absorbance, MTT 24 h: 0.068
  Average absorbance, MTT 48 h: 0.048
  Average absorbance, MTT 72 h: 0.042
[1]; 10 μg/ml CDDP
  Average absorbance, MTT 24 h: 0.066
  Average absorbance, MTT 48 h: 0.044
  Average absorbance, MTT 72 h: 0.04
[1]; 100 μg/ml CDDP
  Average absorbance, MTT 24 h: 0.049
  Average absorbance, MTT 48 h: 0.038
  Average absorbance, MTT 72 h: 0.036
[1]; A375 Run 2, 24 h, 0.1 μg/ml CDDP
  Average absorbance MTT: 0.367
[1]; A375 Run 2, 24 h, 1 μg/ml CDDP
  Average absorbance MTT: 0.047
[1]; A375 Run 2, 24 h, 10 μg/ml CDDP
  Average absorbance MTT: 0.049
[1]; A375 Run 2, 24 h, 100 μg/ml CDDP
  Average absorbance MTT: 0.031
[1]; A375 Run 2, 48 h, 0.1 μg/ml CDDP
  Average absorbance MTT: 0.598
[1]; A375 Run 2, 48 h, 1 μg/ml CDDP
  Average absorbance MTT: 0.046
[1]; A375 Run 2, 48 h, 10 μg/ml CDDP
  Average absorbance MTT: 0.045
[1]; A375 Run 2, 48 h, 100 μg/ml CDDP
  Average absorbance MTT: 0.048
[1]; A375 Run 2, 72 h, 0.1 μg/ml CDDP
  Average absorbance MTT: 0.696
[1]; A375 Run 2, 72 h, 1 μg/ml CDDP
  Average absorbance MTT: 0.049
[1]; A375 Run 2, 72 h, 10 μg/ml CDDP
  Average absorbance MTT: 0.042
[1]; A375 Run 2, 72 h, 100 μg/ml CDDP
  Average absorbance MTT: 0.038
[1]; A375 Run 3, 24 h, 0.1 μg/ml CDDP
  Average absorbance MTT: 0.25
[1]; A375 Run 3, 24 h, 1 μg/ml CDDP
  Average absorbance MTT: 0.052
[1]; A375 Run 3, 24 h, 10 μg/ml CDDP
  Average absorbance MTT: 0.054
[1]; A375 Run 3, 24 h, 100 μg/ml CDDP
  Average absorbance MTT: 0.01
[1]; A375 Run 3, 48 h, 0.1 μg/ml CDDP
  Average absorbance MTT: 0.422
[1]; A375 Run 3, 48 h, 1 μg/ml CDDP
  Average absorbance MTT: 0.041
[1]; A375 Run 3, 48 h, 10 μg/ml CDDP
  Average absorbance MTT: 0.037
[1]; A375 Run 3, 48 h, 100 μg/ml CDDP
  Average absorbance MTT: 0.036
[1]; A375 Run 3, 72 h, 0.1 μg/ml CDDP
  Average absorbance MTT: 0.413
[1]; A375 Run 3, 72 h, 1 μg/ml CDDP
  Average absorbance MTT: 0.026
[1]; A375 Run 3, 72 h, 10 μg/ml CDDP
  Average absorbance MTT: 0.033
[1]; A375 Run 3, 72 h, 100 μg/ml CDDP
  Average absorbance MTT: 0.031
[2]; 0.1 μg/ml CDDP
  CVE Average 24 h: 0.787
  CVE Average 48 h: 0.99
  CVE Average 72 h: 2.312
[2]; 1 μg/ml CDDP
  CVE Average 24 h: 0.451
  CVE Average 48 h: 0.187
  CVE Average 72 h: 0.425
[2]; 10 μg/ml CDDP
  CVE Average 24 h: 0.59
  CVE Average 48 h: 0.277
  CVE Average 72 h: 0.282
[2]; 100 μg/ml CDDP
  CVE Average 24 h: 0.456
  CVE Average 48 h: 0.214
  CVE Average 72 h: 0.231
[2]; Run 2, 24 h, 0.1 μg/ml CDDP
  CVE Average: 0.766
[2]; Run 2, 24 h, 1 μg/ml CDDP
  CVE Average: 0.387
[2]; Run 2, 24 h, 10 μg/ml CDDP
  CVE Average: 0.824
[2]; Run 2, 24 h, 100 μg/ml CDDP
  CVE Average: 0.41
[2]; Run 2, 48 h, 0.1 μg/ml CDDP
  CVE Average: 1.542
[2]; Run 2, 48 h, 1 μg/ml CDDP
  CVE Average: 0.533
[2]; Run 2, 48 h, 10 μg/ml CDDP
  CVE Average: 0.742
[2]; Run 2, 48 h, 100 μg/ml CDDP
  CVE Average: 0.378
[2]; Run 2, 72 h, 0.1 μg/ml CDDP
  CVE Average: 2.449
[2]; Run 2, 72 h, 1 μg/ml CDDP
  CVE Average: 0.533
[2]; Run 2, 72 h, 10 μg/ml CDDP
  CVE Average: 0.46
[2]; Run 2, 72 h, 100 μg/ml CDDP
  CVE Average: 0.327
[2]; Run 3, 24 h, 0.1 μg/ml CDDP
  CVE Average: 2.043
[2]; Run 3, 24 h, 1 μg/ml CDDP
  CVE Average: 0.459
[2]; Run 3, 24 h, 10 μg/ml CDDP
  CVE Average: 1.477
[2]; Run 3, 24 h, 100 μg/ml CDDP
  CVE Average: 0.473
[2]; Run 3, 48 h, 0.1 μg/ml CDDP
  CVE Average: 1.335
[2]; Run 3, 48 h, 10 μg/ml CDDP
  CVE Average: 0.363
[2]; Run 3, 48 h, 100 μg/ml CDDP
  CVE Average: 0.114
[2]; Run 3, 72 h, 0.1 μg/ml CDDP
  CVE Average: 2.814
[2]; Run 3, 72 h, 1 μg/ml CDDP
  CVE Average: 0.623
[2]; Run 3, 72 h, 10 μg/ml CDDP
  CVE Average: 0.669
[2]; Run 3, 72 h, 100 μg/ml CDDP
  CVE Average: 0.499
